Experimental data: patent US20200405697A1, “Antitumor Agent” (Taiho Pharmaceutical Co., Ltd, priority 2017, published 2020)

Molecular target: T1, human RNR (histidine tagged human M1 and human M2 proteins) (Homo sapiens, UniProt P23921)
T1 construct: made in house; host or cells: Escherichia coli
T1 sequence (P23921 1-792): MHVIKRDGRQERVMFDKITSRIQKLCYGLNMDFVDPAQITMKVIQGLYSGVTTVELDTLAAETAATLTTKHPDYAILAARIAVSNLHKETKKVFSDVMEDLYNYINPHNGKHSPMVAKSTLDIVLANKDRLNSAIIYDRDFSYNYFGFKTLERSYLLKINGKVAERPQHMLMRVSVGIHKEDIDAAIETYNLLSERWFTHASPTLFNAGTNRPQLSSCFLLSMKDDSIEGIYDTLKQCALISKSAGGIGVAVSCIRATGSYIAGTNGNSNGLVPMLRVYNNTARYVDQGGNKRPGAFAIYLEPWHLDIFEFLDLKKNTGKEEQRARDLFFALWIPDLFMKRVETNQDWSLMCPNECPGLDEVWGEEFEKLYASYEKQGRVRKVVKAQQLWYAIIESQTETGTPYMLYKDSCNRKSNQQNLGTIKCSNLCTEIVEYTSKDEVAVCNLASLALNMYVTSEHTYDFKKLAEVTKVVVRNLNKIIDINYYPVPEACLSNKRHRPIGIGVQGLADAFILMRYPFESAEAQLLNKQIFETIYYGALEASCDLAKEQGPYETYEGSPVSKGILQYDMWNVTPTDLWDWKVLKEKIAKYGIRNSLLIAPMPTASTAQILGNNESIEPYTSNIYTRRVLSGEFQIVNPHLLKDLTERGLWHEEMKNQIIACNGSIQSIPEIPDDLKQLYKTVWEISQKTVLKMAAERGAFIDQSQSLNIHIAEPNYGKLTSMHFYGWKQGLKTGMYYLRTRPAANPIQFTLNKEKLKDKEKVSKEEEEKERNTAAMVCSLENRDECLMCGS
Assay: Human RNR inhibition effect (dCDP formation from CDP)
Type: biochemical
Settings: 10 μM CDP, 37° C. for 30 minutes, read-out: RNR inhibitory activity IC50
Experimental: The inhibitory activity against the ribonucleotide reduction reaction (RNR inhibitory activity) of the Example compound was determined by measuring the formation of deoxycytidine diphosphate (hereinafter referred to as dCDP) from cytidine diphosphate (hereinafter referred to as CDP) by the following method.
Human M1 subunit (isoform 1, GenBank accession No: NM_001033), to which a histidine tag is fused at the amino terminus, and human M2 subunit (mutant lacking amino terminal 59 amino acids of isoform 2, GenBank accession No: NM_001034), to which a histidine tag is fused, were overexpressed in Escherichia coli and were solubilized after collection, and histidine tagged human M1 and histidine tagged human M2 proteins were purified on a nickel chelate column. A mixture of the histidine tagged human M1 and histidine tagged human M2 proteins was used as RNR in the ribonucleotide reduction reaction. [to]
First, Example compounds were serially diluted with DMSO. Next, human M1 protein and human M2 protein were added to a 0.02% aqueous albumin solution derived from fetal bovine serum, a DMSO solution of the Example compound or the control DMSO solution (final concentration of DMSO was 1%) was added, and the mixture was allowed to stand for 20 minutes. Thereafter, the reaction buffer [50 mM HEPES buffer (pH 7.2) at the final concentration, 4 mM magnesium acetate at the final concentration, 100 mM potassium chloride at the final concentration, 6 mM dithiothreitol at the final concentration, 2 mM adenosine triphosphate at the final concentration, 0.24 mM nicotinamide adenine dinucleotide phosphate at final concentration] and 10 μM CDP at the final concentration were added and incubated at 37° C. for 30 minutes to perform ribonucleotide reduction reaction. Immediately after the reaction, the reaction was stopped by heating at 100° C. for 15 minutes, followed by centrifugation at 10,000 rpm for 10 minutes. After the centrifugation, a portion (5 μL) of the resulting supernatant was analyzed with a high performance liquid chromatography (Shimadzu Corporation, Prominence) using Shim-pack XR-ODS (manufactured by Shimadzu GLC Co., 3.0×100 mm).

SMILES	IC50
Cc1c(Cl)ccc(F)c1[C@@H](C)[C@H](NS(=O)(=O)c1ccc(Cl)c2c1OCCC2(C)N)c1n[nH]c(=O)o1 (mixture of isomers) [Example 328, 4-amino-5-chloro-N-((1S,2R)-2-(3-chloro-6-fluoro-2-methylphenyl)-1-(5-oxo-4,5-dihydro-1,3,4-oxadiazol-2-yl)propyl)-4-methylchroman-8-sulfonamide]	110 nM
COc1c(S(=O)(=O)N[C@H](c2n[nH]c(=O)o2)[C@H](C)c2c(F)ccc(C)c2C)ccc(Cl)c1C(C)O (single isomer, unassigned) [Example 208A]	100 nM
COc1c(S(=O)(=O)N[C@H](c2n[nH]c(=O)o2)[C@H](C)c2c(F)ccc(C)c2C)ccc(Cl)c1C(C)O (single isomer, unassigned) [Example 208B]	60 nM
[2H]C([2H])([2H])C1(O)CCOc2c(S(=O)(=O)N[C@H](c3n[nH]c(=O)o3)[C@H](C)c3c(F)ccc(Br)c3C)ccc(Cl)c21 (single isomer, unassigned) [Example 226A]	50 nM
C[C@H](c1c(F)ccc2ccccc12)[C@H](NS(=O)(=O)c1ccc(Cl)c2c1OCCC2O)c1n[nH]c(=O)o1 (single isomer, unassigned) [Example 234A]	310 nM
Cc1ccc(F)c([C@@H](C)[C@H](NS(=O)(=O)c2cccc3c2OC(C)(C)CC3O)c2n[nH]c(=O)o2)c1C (single isomer, unassigned) [Example 237A]	290 nM
Cc1c(Cl)ccc(F)c1[C@@H](C)[C@H](NS(=O)(=O)c1ccc(Cl)c2c1OCCC2O)c1n[nH]c(=O)o1 (single isomer, unassigned) [Example 238A]	110 nM
CCc1ccc(F)c([C@@H](C)[C@H](NS(=O)(=O)c2ccc(Cl)c3c2OCCC3O)c2n[nH]c(=O)o2)c1C (single isomer, unassigned) [Example 239A]	200 nM
Cc1c(Br)ccc(F)c1[C@@H](C)[C@H](NS(=O)(=O)c1ccc(Cl)c2c1OCCC2O)c1n[nH]c(=O)o1 (single isomer, unassigned) [Example 243A]	70 nM
Cc1c(Br)ccc(F)c1[C@@H](C)[C@H](NS(=O)(=O)c1ccc(Cl)c2c1OCCC2O)c1n[nH]c(=O)o1 (single isomer, unassigned) [Example 243B]	100 nM
Cc1ccc(F)c([C@@H](C)[C@H](NS(=O)(=O)c2ccc(C(F)(F)F)c3c2OCCC3O)c2n[nH]c(=O)o2)c1C (single isomer, unassigned) [Example 244A]	90 nM
Cc1ccc(F)c([C@@H](C)[C@H](NS(=O)(=O)c2ccc(C(F)(F)F)c3c2OCCC3O)c2n[nH]c(=O)o2)c1C (single isomer, unassigned) [Example 244B]	220 nM
Cc1c(Cl)ccc(F)c1[C@@H](C)[C@H](NS(=O)(=O)c1ccc(Cl)c2c1OCCC2(C)N)c1n[nH]c(=O)o1 (single isomer, unassigned) [Example 330A]	120 nM
Cc1c(Cl)ccc(F)c1[C@@H](C)[C@H](NS(=O)(=O)c1ccc(Cl)c2c1OCCC2(C)N)c1n[nH]c(=O)o1 (single isomer, unassigned) [Example 330B]	460 nM
Cc1cccc([C@@H](C)[C@H](NS(=O)(=O)c2ccc(Cl)cc2C(N)=O)c2n[nH]c(=O)o2)c1C [Example 3, 5-chloro-2-(N-((1S,2R)-2-(2,3-dimethylphenyl)-1-(5-oxo-4,5-dihydro-1,3,4-oxadiazol-2-yl)propyl)sulfamoyl)benzamide]	300 nM
Cc1cccc([C@@H](C)[C@H](NS(=O)(=O)c2ccc(Br)cc2C(N)=O)c2n[nH]c(=O)o2)c1C [Example 4, 5-bromo-2-(N-((1S,2R)-2-(2,3-dimethylphenyl)-1-(5-oxo-4,5-dihydro-1,3,4-oxadiazol-2-yl)propyl)sulfamoyl)benzamide]	380 nM

Further lines, results first:

IC50	SMILES
80 nM	[2H]C([2H])([2H])C1(O)CCOc2c(S(=O)(=O)N[C@H](c3n[nH]c(=O)o3)[C@H](C)c3c(F)ccc(C)c3C)ccc(Cl)c21 (single isomer, unassigned) [Example 200B]
130 nM	Cc1ccc(F)c([C@@H](C)[C@H](NS(=O)(=O)c2ccc(Cl)c3c2OCCC3(C)O)c2n[nH]c(=O)o2)c1C (single isomer, unassigned) [Example 207A]
90 nM	Cc1ccc(F)c([C@@H](C)[C@H](NS(=O)(=O)c2ccc(Cl)c3c2OCCC3(C)O)c2n[nH]c(=O)o2)c1C (single isomer, unassigned) [Example 207B]
180 nM	Cc1c(Cl)ccc(F)c1[C@@H](C)[C@H](NS(=O)(=O)c1ccc(Cl)c2c1OCCC2(C)O)c1n[nH]c(=O)o1 (single isomer, unassigned) [Example 209B]
60 nM	Cc1ccc(F)c([C@@H](C)[C@H](NS(=O)(=O)c2ccc(Cl)c3c2OCCC3(O)C(F)(F)F)c2n[nH]c(=O)o2)c1C (single isomer, unassigned) [Example 220A]
80 nM	Cc1ccc(F)c([C@@H](C)[C@H](NS(=O)(=O)c2ccc(Cl)c3c2OCCC3(O)C(F)(F)F)c2n[nH]c(=O)o2)c1C (single isomer, unassigned) [Example 220B]
60 nM	Cc1c(Br)ccc(F)c1[C@@H](C)[C@H](NS(=O)(=O)c1ccc(Cl)c2c1OCCC2(C)O)c1n[nH]c(=O)o1 (single isomer, unassigned) [Example 222B]
90 nM	Cc1ccc(F)c([C@@H](C)[C@H](NS(=O)(=O)c2ccc(F)c3c2OCCC3(C)O)c2n[nH]c(=O)o2)c1C (single isomer, unassigned) [Example 224A]
100 nM	Cc1ccc(F)c([C@@H](C)[C@H](NS(=O)(=O)c2ccc(F)c3c2OCCC3(C)O)c2n[nH]c(=O)o2)c1C (single isomer, unassigned) [Example 224B]
70 nM	[2H]C([2H])([2H])C1(O)CCOc2c(S(=O)(=O)N[C@H](c3n[nH]c(=O)o3)[C@H](C)c3c(F)ccc(Br)c3C)ccc(Cl)c21 (single isomer, unassigned) [Example 226B]
50 nM	Cc1c(Br)ccc(F)c1[C@@H](C)[C@H](NS(=O)(=O)c1ccc(F)c2c1OCCC2(C)O)c1n[nH]c(=O)o1 (single isomer, unassigned) [Example 227A]
90 nM	Cc1c(Br)ccc(F)c1[C@@H](C)[C@H](NS(=O)(=O)c1ccc(F)c2c1OCCC2(C)O)c1n[nH]c(=O)o1 (single isomer, unassigned) [Example 227B]
140 nM	[2H]C([2H])([2H])C1(O)CCOc2c(S(=O)(=O)N[C@H](c3n[nH]c(=O)o3)[C@H](C)c3c(F)ccc(Cl)c3C)ccc(Cl)c21 (single isomer, unassigned) [Example 228B]
60 nM	Cc1c(Cl)ccc(F)c1[C@@H](C)[C@H](NS(=O)(=O)c1ccc(F)c2c1OCCC2(C)O)c1n[nH]c(=O)o1 (single isomer, unassigned) [Example 229A]
110 nM	Cc1c(Cl)ccc(F)c1[C@@H](C)[C@H](NS(=O)(=O)c1ccc(F)c2c1OCCC2(C)O)c1n[nH]c(=O)o1 (single isomer, unassigned) [Example 229B]
120 nM	Cc1ccc(F)c([C@@H](C)[C@H](NS(=O)(=O)c2ccc(F)c3c2OCCC3O)c2n[nH]c(=O)o2)c1C (single isomer, unassigned) [Example 230A]
50 nM	Cc1ccc(F)c([C@@H](C)[C@H](NS(=O)(=O)c2ccc(F)c3c2OCCC3O)c2n[nH]c(=O)o2)c1C (single isomer, unassigned) [Example 230B]
70 nM	Cc1ccc(F)c([C@@H](C)[C@H](NS(=O)(=O)c2ccc(Cl)c3c2OCCC3O)c2n[nH]c(=O)o2)c1C (single isomer, unassigned) [Example 235B]
